Measurements reported in ChEMBL document CHEMBL5291721, “A preclinical secondary pharmacology resource illuminates target-adverse drug reaction associations of marketed drugs” (Nat Commun, 2023).

Columns and labels:
Progesterone receptor = molecular target: T1, Progesterone receptor (Homo sapiens, UniProt P06401)
T1 sequence (P06401 whole entry): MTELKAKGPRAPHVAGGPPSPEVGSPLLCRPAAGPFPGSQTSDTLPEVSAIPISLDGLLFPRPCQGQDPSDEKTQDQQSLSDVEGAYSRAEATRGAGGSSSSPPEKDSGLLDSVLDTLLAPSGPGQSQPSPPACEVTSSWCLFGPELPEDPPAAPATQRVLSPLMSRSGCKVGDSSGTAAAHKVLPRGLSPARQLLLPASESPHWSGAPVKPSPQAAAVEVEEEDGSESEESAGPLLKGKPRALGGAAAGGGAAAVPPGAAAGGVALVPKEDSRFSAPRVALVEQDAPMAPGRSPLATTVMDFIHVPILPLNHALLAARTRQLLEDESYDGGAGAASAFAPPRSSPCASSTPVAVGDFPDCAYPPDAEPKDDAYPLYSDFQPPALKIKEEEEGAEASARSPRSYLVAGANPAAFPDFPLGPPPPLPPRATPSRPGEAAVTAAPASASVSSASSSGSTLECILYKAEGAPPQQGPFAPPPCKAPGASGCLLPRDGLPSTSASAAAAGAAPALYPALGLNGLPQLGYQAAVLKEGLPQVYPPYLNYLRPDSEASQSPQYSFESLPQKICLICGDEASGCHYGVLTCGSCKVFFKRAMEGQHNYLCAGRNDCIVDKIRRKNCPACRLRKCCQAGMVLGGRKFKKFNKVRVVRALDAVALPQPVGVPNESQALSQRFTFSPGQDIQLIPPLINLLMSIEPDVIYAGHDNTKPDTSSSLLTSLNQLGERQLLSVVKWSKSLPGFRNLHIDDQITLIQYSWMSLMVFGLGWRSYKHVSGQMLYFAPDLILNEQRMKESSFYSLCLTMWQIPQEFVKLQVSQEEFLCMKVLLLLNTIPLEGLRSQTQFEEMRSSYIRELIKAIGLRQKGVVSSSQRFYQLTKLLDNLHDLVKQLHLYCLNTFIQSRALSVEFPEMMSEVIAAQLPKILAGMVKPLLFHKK

[1] = molecular target: Neuronal acetylcholine receptor subunit alpha-4 (Homo sapiens, UniProt P43681)
Neuronal acetylcholine receptor subunit alpha-4, sequence (P43681 whole entry): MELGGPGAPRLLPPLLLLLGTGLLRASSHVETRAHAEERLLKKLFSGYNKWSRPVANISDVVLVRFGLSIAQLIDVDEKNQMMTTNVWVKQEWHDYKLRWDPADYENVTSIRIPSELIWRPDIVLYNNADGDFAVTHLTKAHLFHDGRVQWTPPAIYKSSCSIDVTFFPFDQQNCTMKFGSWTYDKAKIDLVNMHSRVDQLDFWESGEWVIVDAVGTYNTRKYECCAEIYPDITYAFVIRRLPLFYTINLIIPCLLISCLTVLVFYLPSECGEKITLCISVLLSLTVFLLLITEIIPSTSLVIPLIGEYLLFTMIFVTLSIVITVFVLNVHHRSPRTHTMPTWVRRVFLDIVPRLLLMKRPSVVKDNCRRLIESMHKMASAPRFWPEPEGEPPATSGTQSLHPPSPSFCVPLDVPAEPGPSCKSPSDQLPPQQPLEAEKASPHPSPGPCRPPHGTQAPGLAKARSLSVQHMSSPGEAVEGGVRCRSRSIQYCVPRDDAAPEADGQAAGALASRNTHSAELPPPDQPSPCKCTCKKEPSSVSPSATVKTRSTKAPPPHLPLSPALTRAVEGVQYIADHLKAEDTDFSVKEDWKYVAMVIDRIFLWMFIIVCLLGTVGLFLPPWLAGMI

[2] = molecular target: Delta-type opioid receptor (Homo sapiens, UniProt P41143)
Delta-type opioid receptor, sequence (P41143 whole entry): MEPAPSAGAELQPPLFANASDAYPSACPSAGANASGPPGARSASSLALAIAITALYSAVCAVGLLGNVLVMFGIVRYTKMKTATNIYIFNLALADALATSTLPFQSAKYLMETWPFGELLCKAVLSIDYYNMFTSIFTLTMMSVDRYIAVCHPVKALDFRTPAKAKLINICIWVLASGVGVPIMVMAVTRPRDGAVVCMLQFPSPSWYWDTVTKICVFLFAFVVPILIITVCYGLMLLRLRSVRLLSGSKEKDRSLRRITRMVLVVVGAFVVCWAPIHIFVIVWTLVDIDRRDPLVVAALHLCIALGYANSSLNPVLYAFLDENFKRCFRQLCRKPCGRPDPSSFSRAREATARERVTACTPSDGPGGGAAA

[3] = molecular target: T2, Prostaglandin G/H synthase 1 (Rattus norvegicus, UniProt Q63921); format: functional
T2 sequence (Q63921 whole entry): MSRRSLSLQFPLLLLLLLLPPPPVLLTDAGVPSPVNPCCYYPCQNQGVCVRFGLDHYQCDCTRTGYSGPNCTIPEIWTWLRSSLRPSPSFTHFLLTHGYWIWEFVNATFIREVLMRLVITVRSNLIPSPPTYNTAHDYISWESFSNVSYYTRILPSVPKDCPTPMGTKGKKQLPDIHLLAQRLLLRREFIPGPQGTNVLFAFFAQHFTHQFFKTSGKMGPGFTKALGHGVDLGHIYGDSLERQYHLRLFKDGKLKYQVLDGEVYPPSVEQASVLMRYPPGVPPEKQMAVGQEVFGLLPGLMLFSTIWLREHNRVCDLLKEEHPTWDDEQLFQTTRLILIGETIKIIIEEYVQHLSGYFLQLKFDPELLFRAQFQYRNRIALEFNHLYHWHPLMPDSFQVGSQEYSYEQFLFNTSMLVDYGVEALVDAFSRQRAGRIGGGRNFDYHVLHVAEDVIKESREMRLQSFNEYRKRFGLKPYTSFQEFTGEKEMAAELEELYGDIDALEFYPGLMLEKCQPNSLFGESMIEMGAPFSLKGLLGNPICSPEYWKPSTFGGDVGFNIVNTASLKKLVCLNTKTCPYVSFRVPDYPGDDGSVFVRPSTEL

Endothelin-1 receptor = molecular target: T3, Endothelin-1 receptor (Homo sapiens, UniProt P25101)
T3 sequence (P25101 whole entry): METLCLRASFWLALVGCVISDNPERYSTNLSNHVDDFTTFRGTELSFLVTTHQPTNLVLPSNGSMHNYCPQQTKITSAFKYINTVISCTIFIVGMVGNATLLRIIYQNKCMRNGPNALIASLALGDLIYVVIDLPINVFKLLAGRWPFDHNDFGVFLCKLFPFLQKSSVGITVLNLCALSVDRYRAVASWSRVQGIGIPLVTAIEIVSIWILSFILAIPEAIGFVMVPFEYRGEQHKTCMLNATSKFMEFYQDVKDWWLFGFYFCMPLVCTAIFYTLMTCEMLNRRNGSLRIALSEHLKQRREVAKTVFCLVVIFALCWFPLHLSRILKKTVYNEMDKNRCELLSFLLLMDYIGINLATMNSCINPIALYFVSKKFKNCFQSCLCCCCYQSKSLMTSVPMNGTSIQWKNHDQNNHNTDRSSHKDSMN

[4] = molecular target: Beta-1 adrenergic receptor (Homo sapiens, UniProt P08588); format: functional
Beta-1 adrenergic receptor, sequence (P08588 whole entry): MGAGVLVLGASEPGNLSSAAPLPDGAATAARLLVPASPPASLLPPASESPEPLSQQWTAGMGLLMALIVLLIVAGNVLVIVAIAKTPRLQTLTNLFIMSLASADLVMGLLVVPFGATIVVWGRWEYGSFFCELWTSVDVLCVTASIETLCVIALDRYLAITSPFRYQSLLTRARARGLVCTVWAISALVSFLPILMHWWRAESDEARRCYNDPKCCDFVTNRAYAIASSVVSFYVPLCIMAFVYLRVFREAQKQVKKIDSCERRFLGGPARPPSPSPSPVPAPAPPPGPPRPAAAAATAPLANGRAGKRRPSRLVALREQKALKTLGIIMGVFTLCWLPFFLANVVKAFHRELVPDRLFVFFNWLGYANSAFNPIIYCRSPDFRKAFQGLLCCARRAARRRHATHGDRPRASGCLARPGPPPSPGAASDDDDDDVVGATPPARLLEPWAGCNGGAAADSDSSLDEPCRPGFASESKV

[5] = molecular target: Glutamate receptor ionotropic, NMDA 1 (Rattus norvegicus, UniProt P35439)
[6] = molecular target: 5-hydroxytryptamine receptor 2B (Homo sapiens, UniProt P41595); format: functional, cell-based
5-hydroxytryptamine receptor 2B, sequence (P41595 whole entry): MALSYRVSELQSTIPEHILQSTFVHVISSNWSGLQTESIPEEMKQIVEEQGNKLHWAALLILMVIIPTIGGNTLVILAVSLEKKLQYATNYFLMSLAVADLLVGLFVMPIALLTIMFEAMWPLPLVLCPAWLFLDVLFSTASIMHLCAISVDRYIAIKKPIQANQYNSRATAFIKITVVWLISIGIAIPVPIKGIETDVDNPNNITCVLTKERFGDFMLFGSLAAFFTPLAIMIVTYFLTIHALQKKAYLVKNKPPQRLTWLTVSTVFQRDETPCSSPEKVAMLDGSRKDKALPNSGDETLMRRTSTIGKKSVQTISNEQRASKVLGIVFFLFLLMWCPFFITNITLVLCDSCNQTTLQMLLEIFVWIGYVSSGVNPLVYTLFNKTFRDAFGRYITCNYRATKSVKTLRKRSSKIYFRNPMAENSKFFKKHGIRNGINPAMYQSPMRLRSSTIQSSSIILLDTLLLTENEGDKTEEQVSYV

Cannabinoid receptor 1 = Cannabinoid receptor 1 (Homo sapiens, UniProt P21554); format: functional, cell-based
Cannabinoid receptor 1, sequence (P21554 whole entry): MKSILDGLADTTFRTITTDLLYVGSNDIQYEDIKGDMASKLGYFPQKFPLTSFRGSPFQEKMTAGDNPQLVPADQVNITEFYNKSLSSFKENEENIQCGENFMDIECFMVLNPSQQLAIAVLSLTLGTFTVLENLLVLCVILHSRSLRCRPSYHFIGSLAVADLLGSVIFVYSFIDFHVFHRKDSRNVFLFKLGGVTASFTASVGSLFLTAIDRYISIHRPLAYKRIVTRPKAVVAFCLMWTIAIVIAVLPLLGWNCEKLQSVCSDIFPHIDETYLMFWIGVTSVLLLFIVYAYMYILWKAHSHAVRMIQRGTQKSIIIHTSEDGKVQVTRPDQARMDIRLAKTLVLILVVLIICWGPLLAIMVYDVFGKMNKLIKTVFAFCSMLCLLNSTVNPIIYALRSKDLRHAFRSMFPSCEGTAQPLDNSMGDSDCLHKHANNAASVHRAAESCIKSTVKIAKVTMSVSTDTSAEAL
Also: assay procedure not described here.

SMILES: CN1CCC[C@@H]1Cc1c[nH]c2ccc(CCS(=O)(=O)c3ccccc3)cc12
- AC50 (Progesterone receptor): > 30 µM

SMILES: O=C(Nc1cccc2c(=O)cc(-c3nnn[nH]3)oc12)c1ccc(OCCCCc2ccccc2)cc1
- AC50 (Progesterone receptor): 6.23 µM

SMILES: NC(=O)c1nc(F)c[nH]c1=O
- AC50 (Progesterone receptor): > 30 µM

SMILES: CN(C)CCCN1C(=O)c2cc([N+](=O)[O-])ccc2Oc2ccccc21
- AC50 (Progesterone receptor): > 30 µM

SMILES: O=S(=O)(O)CCS [2-MERCAPTOETHANESULFONIC ACID]
- AC50 (Progesterone receptor): > 30 µM

SMILES: CC1(C)S[C@@H]2[C@H](NC(=O)[C@H](N)c3ccc(O)cc3)C(=O)N2[C@H]1C(=O)O [AMOXICILLIN]
- AC50 [1]: > 30 µM
- AC50 [2]: > 30 µM
- AC50 [3]: > 30 µM
- AC50 (Endothelin-1 receptor): > 30 µM
- AC50 [4]: > 30 µM
- AC50 [5]: > 30 µM
- AC50 [6]: > 30 µM

SMILES: CNCC[C@@H](Oc1ccccc1C)c1ccccc1 [ATOMOXETINE]
- AC50 (Cannabinoid receptor 1): > 30 µM
- AC50 [1]: > 30 µM
- AC50 [2]: > 30 µM
- AC50 [3]: > 30 µM
- AC50 (Endothelin-1 receptor): > 30 µM
- AC50 [4]: > 30 µM
- AC50 [6]: 25 µM

SMILES: O=C(O)COc1nn(Cc2ccccc2)c2ccccc12 [BENDAZAC]
- AC50 (Progesterone receptor): > 30 µM

SMILES: Cc1ccc([C@@H]2O[C@H](CO)[C@@H](O)[C@H](O)[C@H]2O)cc1Cc1ccc(-c2ccc(F)cc2)s1 [CANAGLIFLOZIN ANHYDROUS]
- AC50 (Progesterone receptor): > 30 µM

SMILES: O=C(O)CCCc1ccc(N(CCCl)CCCl)cc1 [CHLORAMBUCIL]
- AC50 (Progesterone receptor): > 30 µM

SMILES: CN(C)CCN(Cc1ccc(Cl)cc1)c1ccccn1 [CHLOROPYRAMINE]
- AC50 (Progesterone receptor): > 30 µM

SMILES: O=C(O)c1cc(=O)c2ccccc2o1 [CHROMOCARB]
- AC50 (Progesterone receptor): > 30 µM

SMILES: CN(CC(=O)O)C(=N)N [CREATINE]
- AC50 (Progesterone receptor): > 30 µM

SMILES: N[C@@H](CSSC[C@H](N)C(=O)O)C(=O)O [CYSTINE]
- AC50 (Progesterone receptor): > 30 µM

SMILES: CN1C[C@H](C(=O)N[C@]2(C)O[C@@]3(O)[C@@H]4CCCN4C(=O)[C@H](Cc4ccccc4)N3C2=O)C[C@@H]2c3cccc4[nH]cc(c34)C[C@H]21 [DIHYDROERGOTAMINE]
- AC50 (Cannabinoid receptor 1): > 30 µM
- AC50 [1]: > 10 µM
- AC50 [2]: > 30 µM
- AC50 [3]: > 30 µM
- AC50 (Endothelin-1 receptor): > 30 µM
- AC50 [4]: > 10 µM
- AC50 [5]: > 10 µM

SMILES: Cn1c(=O)c2c(ncn2CC(O)CO)n(C)c1=O (stereo not given) [DYPHYLLINE]
- AC50 (Progesterone receptor): > 30 µM

SMILES: C[C@]12CC[C@@H]3c4ccc(O)cc4CC[C@H]3[C@@H]1CC[C@@H]2OC(=O)CCC1CCCC1 [ESTRADIOL CYPIONATE]
- AC50 (Progesterone receptor): 1.65 µM

SMILES: CC1(C)O[C@@H]2C[C@H]3[C@@H]4C[C@H](F)C5=CC(=O)C=C[C@]5(C)[C@H]4[C@@H](O)C[C@]3(C)[C@]2(C(=O)CO)O1 [FLUNISOLIDE]
- AC50 (Cannabinoid receptor 1): > 30 µM
- AC50 [1]: > 30 µM
- AC50 [2]: > 30 µM
- AC50 [3]: > 30 µM
- AC50 (Endothelin-1 receptor): > 30 µM
- AC50 [4]: > 30 µM
- AC50 [6]: > 30 µM

SMILES: CC1(C)O[C@@H]2C[C@H]3[C@@H]4CCC5=CC(=O)CC[C@]5(C)[C@@]4(F)[C@@H](O)C[C@]3(C)[C@]2(C(=O)CCl)O1 [HALCINONIDE]
- AC50 (Progesterone receptor): 0.003 µM

SMILES: C[C@]12CCC(=O)C=C1CC[C@@H]1[C@@H]2[C@@H](O)C[C@@]2(C)[C@H]1CC[C@]2(O)C(=O)COC(=O)CCC(=O)O [HYDROCORTISONE HEMISUCCINATE ANHYDROUS]
- AC50 (Progesterone receptor): > 30 µM

SMILES: N=C(N)NCc1cccc([123I])c1 [IOBENGUANE I 123]
- AC50 (Progesterone receptor): > 30 µM
